Data on 20 molecules can be found in ChEMBL document CHEMBL4706587 (Eur J Med Chem, 2020).

Each structure is given as a SMILES string. Bounds are passed on as bounds.

Assay [1] concerns the target 5-hydroxytryptamine receptor 6 (Homo sapiens, UniProt P50406). In words: Displacement of [3H]-LSD from human 5HT6 receptor expressed in HEK293 cells measured after 1 hr by microbeta plate reader method. In kind it is cell-based.
Assay [2] addresses T1, Amine oxidase [flavin-containing] B (Homo sapiens, UniProt P27338).
T1 sequence (P27338 whole entry): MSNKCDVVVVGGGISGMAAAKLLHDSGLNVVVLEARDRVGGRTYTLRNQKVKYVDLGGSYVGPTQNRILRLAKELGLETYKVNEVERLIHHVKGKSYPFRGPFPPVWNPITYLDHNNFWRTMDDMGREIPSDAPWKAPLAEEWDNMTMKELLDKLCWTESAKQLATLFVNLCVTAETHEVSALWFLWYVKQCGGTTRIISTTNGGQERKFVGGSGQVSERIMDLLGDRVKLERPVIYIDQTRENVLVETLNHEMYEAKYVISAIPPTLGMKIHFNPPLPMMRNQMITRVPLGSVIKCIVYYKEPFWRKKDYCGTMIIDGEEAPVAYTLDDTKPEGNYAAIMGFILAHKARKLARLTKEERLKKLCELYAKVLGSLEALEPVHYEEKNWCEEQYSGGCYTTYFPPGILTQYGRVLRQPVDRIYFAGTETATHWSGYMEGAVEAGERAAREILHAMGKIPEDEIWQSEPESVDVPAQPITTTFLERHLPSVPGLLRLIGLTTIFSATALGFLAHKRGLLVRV
In words: Inhibition of recombinant human MAO-B expressed in baculovirus infected BTI insect cells using p-tyramine as substrate preincubated for 30 mins followed by substrate addition and measured after 1 hr by fluorimetric analysis.

The target in assay [3] is T1, Amine oxidase [flavin-containing] B. Conditions: BTI, 1 h, read-out: INH.
Description: Inhibition of recombinant human MAO-B expressed in baculovirus infected BTI insect cells at 1 uM using p-tyramine as substrate preincubated for 30 mins followed by substrate addition and measured after 1 hr by fluorimetric analysis relative to control

5-hydroxytryptamine receptor 6, sequence (P50406 whole entry): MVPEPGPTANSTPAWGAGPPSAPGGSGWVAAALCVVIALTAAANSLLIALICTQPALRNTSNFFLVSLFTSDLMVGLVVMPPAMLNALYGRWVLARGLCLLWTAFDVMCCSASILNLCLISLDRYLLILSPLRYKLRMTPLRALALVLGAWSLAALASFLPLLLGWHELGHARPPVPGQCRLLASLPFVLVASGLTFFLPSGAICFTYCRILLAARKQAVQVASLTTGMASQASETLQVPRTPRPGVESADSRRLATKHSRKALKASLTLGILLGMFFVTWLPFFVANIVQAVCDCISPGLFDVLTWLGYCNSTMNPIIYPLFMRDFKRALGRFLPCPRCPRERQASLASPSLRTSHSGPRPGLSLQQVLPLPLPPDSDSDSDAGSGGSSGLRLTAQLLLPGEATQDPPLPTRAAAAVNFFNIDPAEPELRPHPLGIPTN

`C#CCNC1CCc2c(OCCN3CCN(c4cccc5c4ccn5Cc4cccc(Cl)c4)CC3)cccc21` (stereo not given) returned a Ki in assay [1] of 100 nM. Besides, the IC50 in assay [2] is over 1000 nM. Also, the inhibition at 1 µM in assay [3] was found to be 35%.

In assay [1], `C#CCN(C)Cc1ccc(OCCCCN2CCN(c3cccc4c3ccn4S(=O)(=O)c3ccccc3)CC2)cc1` came in with a Ki of 54 nM. Further, the IC50 in assay [2] was over 1000 nM. Moreover, in assay [3], the inhibition at 1 µM was determined as 51%.

In assay [1], `C#CCNC1CCc2c(OCCCN3CCN(c4cccc5c4ccn5Cc4cccc(Cl)c4)CC3)cccc21` (stereo not given) registered a Ki of 77 nM. In assay [2], the half-maximal inhibitory concentration (IC50) was over 1000 nM. Moreover, the inhibition at 1 µM in assay [3] came out at 31%.

Take `C[C@H](NCc1ccc(OCCCN2CCN(c3cccc4c3ccn4Cc3cccc(Cl)c3)CC2)cc1)C(N)=O`: the Ki in assay [1] amounted to 158 nM. The IC50 in assay [2] was over 1000 nM. The inhibition at 1 µM in assay [3] is 47%.

The molecule `C#CCNC1CCc2c(OCCCCN3CCN(c4cccc5c4ccn5S(=O)(=O)c4ccccc4)CC3)cccc21` (stereo not given) returned a Ki in assay [1] of 50 nM. For the same molecule, the half-maximal inhibitory concentration (IC50) in assay [2] was over 1000 nM. Also, in assay [3], the inhibition at 1 µM came to 44%.

In assay [1], `C#CCNC1CCc2c(OCCCCCN3CCN(c4cccc5c4ccn5S(=O)(=O)c4ccccc4)CC3)cccc21` (stereo not given) returned an inhibition constant Ki of 51 nM. Also, the IC50 in assay [2] worked out at 163 nM. Besides, the inhibition at 1 µM in assay [3] turned out to be 90%.

Turning to `C[C@H](NCc1ccc(OCCCCN2CCN(c3cccc4c3ccn4S(=O)(=O)c3ccccc3)CC2)cc1)C(N)=O`, in assay [1], the Ki is 68 nM. Further, in assay [2], the IC50 was over 1000 nM. Besides, the inhibition at 1 µM in assay [3] came out at 20%.

As to `C#CCN(C)Cc1ccc(OCCCCN2CCN(c3cccc4c3ccn4Cc3cccc(Cl)c3)CC2)cc1`, the inhibition constant (Ki) in assay [1] was 195 nM. Moreover, the half-maximal inhibitory concentration (IC50) in assay [2] was determined as 323 nM. In assay [3], the inhibition at 1 µM is 85%.

The molecule `C[C@H](NCc1ccc(OCCCCCCN2CCN(c3cccc4c3ccn4Cc3cccc(Cl)c3)CC2)cc1)C(N)=O` had an inhibition constant (Ki) in assay [1] of 340 nM. Also, the half-inhibitory concentration (IC50) in assay [2] was over 1000 nM. Moreover, in assay [3], the inhibition at 1 µM came to 23%.

The molecule `C#CCN(C)Cc1ccc(OCCCCCCN2CCN(c3cccc4c3ccn4Cc3cccc(Cl)c3)CC2)cc1` came in with a Ki in assay [1] of 137 nM. Besides, the IC50 in assay [2] is over 1000 nM. Also, in assay [3], the inhibition at 1 µM is 32%.

`C#CCNC1CCc2c(OCCCCCN3CCN(c4cccc5c4ccn5Cc4cccc(Cl)c4)CC3)cccc21` (stereo not given) came in with a Ki in assay [1] of 223 nM. In assay [2], the half-inhibitory concentration (IC50) turned out to be 460 nM. Further, the inhibition at 1 µM in assay [3] turned out to be 80%.

`C#CCN(C)Cc1ccc(OCCCCCN2CCN(c3cccc4c3ccn4Cc3cccc(Cl)c3)CC2)cc1`: the inhibition constant (Ki) in assay [1] stood at 140 nM. The half-maximal inhibitory concentration (IC50) in assay [2] came to 30 nM. Also, the inhibition at 1 µM in assay [3] was 100%.

`C#CCNC1CCc2c(OCCCCCCN3CCN(c4cccc5c4ccn5Cc4cccc(Cl)c4)CC3)cccc21` (stereo not given): the Ki in assay [1] turned out to be 259 nM. Besides, the IC50 in assay [2] is over 1000 nM. The inhibition at 1 µM in assay [3] worked out at 34%.

Molecule `C#CCN[C@@H]1CCc2ccccc21` [RASAGILINE] returned an inhibition constant (Ki) in assay [1] of 1.4 nM.

In turn, `Clc1cccc(Cn2ccc3c(N4CCNCC4)cccc32)c1` returned a Ki in assay [1] of 7 nM. The inhibition at 1 µM in assay [3] was 3%.

For the molecule `O=S(=O)(c1ccccc1)n1ccc2c(N3CCNCC3)cccc21`, the inhibition at 1 µM in assay [3] came to 3%.

In turn, `C[C@H](NCc1ccc(OCCCCCN2CCN(c3cccc4c3ccn4Cc3cccc(Cl)c3)CC2)cc1)C(N)=O` returned an inhibitory constant (Ki) in assay [1] of 232 nM. The IC50 in assay [2] was over 1000 nM. Besides, the inhibition at 1 µM in assay [3] was determined as 43%.

`C[C@H](NCc1ccc(OCCCCCN2CCN(c3cccc4c3ccn4S(=O)(=O)c3ccccc3)CC2)cc1)C(N)=O` showed an inhibition constant Ki in assay [1] of 65 nM. The IC50 in assay [2] is over 1000 nM. Further, the inhibition at 1 µM in assay [3] came to 17%.

Regarding `C#CCNC1CCc2c(OCCCCN3CCN(c4cccc5c4ccn5Cc4cccc(Cl)c4)CC3)cccc21` (stereo not given), the affinity in assay [1] corresponds to a Ki of 113 nM. Further, the IC50 in assay [2] was 270 nM. Besides, the inhibition at 1 µM in assay [3] was determined as 100%.

Turning to `C[C@H](NCc1ccc(OCCCCN2CCN(c3cccc4c3ccn4Cc3cccc(Cl)c3)CC2)cc1)C(N)=O`, in assay [1], affinity was put at a Ki of 162 nM. In addition, the 50% inhibitory concentration (IC50) in assay [2] is over 1000 nM. In assay [3], the inhibition at 1 µM was found to be 24%.

The term Ki denotes the equilibrium dissociation constant of an inhibitor or competing ligand from its target. The IC50 is the midpoint of a concentration-inhibition curve.
